Reference: the NIST ThermoML archive (doi:10.1021/je900525f)
± gives the expanded uncertainty stated by the source.

Assay: xn = mol fraction of the nth substance listed
Conditions: 101 kPa, Liquid; for viscosity: Capillary tube (Ostwald / Ubbelohde) method; for speed of sound: Pulse-echo method

N#CCc1ccccc1 [benzeneacetonitrile] + CCOC(C)=O
Conditions | mass density, 303.15 K [kg/m3] | mass density, 308.15 K [kg/m3] | mass density, 313.15 K [kg/m3] | speed of sound, 303.15 K [m/s] | speed of sound, 308.15 K [m/s] | speed of sound, 313.15 K [m/s] | viscosity, 303.15 K [mPa·s] | viscosity, 308.15 K [mPa·s] | viscosity, 313.15 K [mPa·s]
x1 = 0.0198 | 892.4 ± 0.5 | 887.4 ± 0.5 | 880.8 ± 0.5 | 1125.1 ± 6.8 | 1109.3 ± 6.7 | 1104.3 ± 6.7 | 0.396 ± 0.01 | 0.376 ± 0.01 | 0.357 ± 0.01
x1 = 0.1279 | 910.4 ± 0.5 | 905.4 ± 0.5 | 899.6 ± 0.6 | 1173.8 ± 7.1 | 1164.8 ± 7 | 1159.7 ± 7 | 0.483 ± 0.011 | 0.458 ± 0.011 | 0.431 ± 0.01
x1 = 0.2425 | 926.8 ± 0.5 | 922.7 ± 0.6 | 916.9 ± 0.6 | 1230.8 ± 7.4 | 1218.2 ± 7.4 | 1209.3 ± 7.3 | 0.591 ± 0.011 | 0.556 ± 0.011 | 0.524 ± 0.011
x1 = 0.3589 | 942.3 ± 0.6 | 938 ± 0.6 | 933.4 ± 0.6 | 1286.7 ± 7.8 | 1278.4 ± 7.7 | 1263.6 ± 7.6 | 0.714 ± 0.011 | 0.668 ± 0.011 | 0.627 ± 0.011
x1 = 0.461 | 955.3 ± 0.6 | 950.9 ± 0.6 | 946.5 ± 0.6 | 1326.1 ± 8 | 1312.5 ± 7.9 | 1303.1 ± 7.9 | 0.839 ± 0.012 | 0.781 ± 0.011 | 0.733 ± 0.011
x1 = 0.5665 | 967.5 ± 0.6 | 963.3 ± 0.6 | 958.5 ± 0.6 | 1366.7 ± 8.3 | 1355.1 ± 8.2 | 1344.9 ± 8.1 | 0.984 ± 0.012 | 0.914 ± 0.012 | 0.856 ± 0.012
x1 = 0.6978 | 981.5 ± 0.6 | 978.1 ± 0.7 | 972.4 ± 0.7 | 1417.8 ± 8.6 | 1410.8 ± 8.5 | 1400 ± 8 | 1.18 ± 0.013 | 1.092 ± 0.013 | 1.017 ± 0.012
x1 = 0.8328 | 994.9 ± 0.7 | 991.8 ± 0.7 | 985.2 ± 0.7 | 1464.3 ± 8.9 | 1461.3 ± 8.8 | 1446.8 ± 8.8 | 1.416 ± 0.014 | 1.307 ± 0.014 | 1.209 ± 0.013
x1 = 0.9745 | 1006.5 ± 0.7 | 1002.6 ± 0.7 | 998.1 ± 0.8 | 1508.3 ± 9.1 | 1500.5 ± 9.1 | 1490 ± 9 | 1.695 ± 0.016 | 1.554 ± 0.015 | 1.43 ± 0.014
x1 = 1 | 1008.8 ± 0.7 | 1004.1 ± 0.7 | 999.5 ± 0.8 | 1519.2 ± 9.2 | 1512.9 ± 9.2 | 1503.4 ± 9.1 | 1.761 ± 0.016 | 1.602 ± 0.015 | 1.489 ± 0.015

CCOC(=O)CCl [ethyl chloroethanoate] + N#CCc1ccccc1
Conditions | mass density, 303.15 K [kg/m3] | mass density, 308.15 K [kg/m3] | mass density, 313.15 K [kg/m3] | speed of sound, 303.15 K [m/s] | speed of sound, 308.15 K [m/s] | speed of sound, 313.15 K [m/s] | viscosity, 303.15 K [mPa·s] | viscosity, 308.15 K [mPa·s] | viscosity, 313.15 K [mPa·s]
x2 = 0 | 1139.3 ± 0.9 | 1132.5 ± 0.9 | 1125.9 ± 0.9 | 1229.4 ± 7.5 | 1212.4 ± 7.4 | 1197.6 ± 7.3 | 0.9692 ± 0.012 | 0.8979 ± 0.012 | 0.8341 ± 0.012
x2 = 0.0205 | 1135.8 ± 0.9 | 1129.8 ± 0.9 | 1123.2 ± 0.9 | 1235.7 ± 7.5 | 1218.9 ± 7.4 | 1204 ± 7.3 | 0.9824 ± 0.012 | 0.9115 ± 0.012 | 0.8463 ± 0.012
x2 = 0.1376 | 1119.2 ± 0.8 | 1114.3 ± 0.9 | 1107.6 ± 0.9 | 1268.8 ± 7.7 | 1254 ± 7.6 | 1240.4 ± 7.5 | 1.069 ± 0.013 | 0.9906 ± 0.013 | 0.9164 ± 0.012
x2 = 0.2585 | 1102.6 ± 0.8 | 1098.5 ± 0.8 | 1091.7 ± 0.9 | 1303.2 ± 7.9 | 1291.5 ± 7.8 | 1279 ± 7.8 | 1.161 ± 0.013 | 1.072 ± 0.013 | 0.9925 ± 0.013
x2 = 0.3793 | 1086.4 ± 0.8 | 1083.3 ± 0.8 | 1076.2 ± 0.8 | 1338.7 ± 8.1 | 1328.4 ± 8.1 | 1316.6 ± 8 | 1.254 ± 0.014 | 1.155 ± 0.013 | 1.07 ± 0.013
x2 = 0.4843 | 1072.6 ± 0.8 | 1069.8 ± 0.8 | 1062.8 ± 0.8 | 1370.5 ± 8.3 | 1361.6 ± 8.3 | 1348.5 ± 8.2 | 1.336 ± 0.014 | 1.229 ± 0.013 | 1.139 ± 0.013
x2 = 0.5875 | 1059.3 ± 0.8 | 1056.4 ± 0.8 | 1049.8 ± 0.8 | 1400.6 ± 8.5 | 1388.9 ± 8.4 | 1381 ± 8.4 | 1.419 ± 0.015 | 1.302 ± 0.014 | 1.207 ± 0.013
x2 = 0.7152 | 1043.2 ± 0.8 | 1040 ± 0.8 | 1034 ± 0.8 | 1438.2 ± 8.7 | 1426.3 ± 8.6 | 1419.9 ± 8.6 | 1.523 ± 0.015 | 1.394 ± 0.014 | 1.292 ± 0.014
x2 = 0.8434 | 1027.5 ± 0.7 | 1023.7 ± 0.8 | 1018.3 ± 0.8 | 1476.9 ± 8.9 | 1466 ± 8.9 | 1457.4 ± 8.8 | 1.628 ± 0.016 | 1.488 ± 0.015 | 1.379 ± 0.014
x2 = 0.9764 | 1011.6 ± 0.7 | 1007 ± 0.7 | 1002.3 ± 0.8 | 1516 ± 9.2 | 1505.6 ± 9.1 | 1495.8 ± 9.1 | 1.74 ± 0.016 | 1.584 ± 0.015 | 1.471 ± 0.015

CCOC(=O)CC#N [ethyl cyanoacetate] + N#CCc1ccccc1
Conditions | mass density, 303.15 K [kg/m3] | mass density, 308.15 K [kg/m3] | mass density, 313.15 K [kg/m3] | speed of sound, 303.15 K [m/s] | speed of sound, 308.15 K [m/s] | speed of sound, 313.15 K [m/s] | viscosity, 303.15 K [mPa·s] | viscosity, 308.15 K [mPa·s] | viscosity, 313.15 K [mPa·s]
x2 = 0 | 1051.4 ± 1.4 | 1046.5 ± 1.4 | 1040.8 ± 1.5 | 1396.9 ± 8.6 | 1384.8 ± 8.6 | 1367.7 ± 8.5 | 2.186 ± 0.027 | 1.962 ± 0.024 | 1.77 ± 0.022
x2 = 0.0223 | 1050.1 ± 1.4 | – | 1039.8 ± 1.4 | 1399.6 ± 8.7 | – | 1370.4 ± 8.5 | 2.179 ± 0.026 | – | 1.764 ± 0.022
x2 = 0.0233 | – | 1045.6 ± 1.4 | – | – | 1386.5 ± 8.6 | – | – | 1.955 ± 0.024 | –
x2 = 0.1383 | 1044.4 ± 1.3 | 1040.9 ± 1.3 | 1034.8 ± 1.3 | 1412.3 ± 8.7 | 1397.7 ± 8.6 | 1384.6 ± 8.5 | 2.135 ± 0.025 | 1.917 ± 0.023 | 1.733 ± 0.021
x2 = 0.2569 | 1038.8 ± 1.2 | 1035.9 ± 1.2 | 1029.9 ± 1.2 | 1424.4 ± 8.7 | 1410 ± 8.7 | 1399.1 ± 8.6 | 2.088 ± 0.024 | 1.877 ± 0.022 | 1.701 ± 0.02
x2 = 0.3778 | 1033.4 ± 1.1 | 1030.8 ± 1.1 | 1025.3 ± 1.1 | 1436 ± 8.8 | 1423.7 ± 8.7 | 1414.2 ± 8.7 | 2.039 ± 0.022 | 1.836 ± 0.02 | 1.671 ± 0.019
x2 = 0.4842 | 1028.9 ± 1 | 1026.3 ± 1 | 1021.1 ± 1.1 | 1448 ± 8.8 | 1436.3 ± 8.8 | 1429.2 ± 8.7 | 1.995 ± 0.021 | 1.799 ± 0.019 | 1.644 ± 0.018
x2 = 0.5882 | 1024.6 ± 0.9 | 1021.8 ± 1 | 1016.8 ± 1 | 1461.3 ± 8.9 | 1450.4 ± 8.8 | 1442 ± 8.8 | 1.95 ± 0.02 | 1.761 ± 0.018 | 1.612 ± 0.017
x2 = 0.7172 | 1019.4 ± 0.9 | 1016.2 ± 0.9 | 1011.4 ± 0.9 | 1479.4 ± 9 | 1468.5 ± 8.9 | 1459.4 ± 8.9 | 1.893 ± 0.019 | 1.713 ± 0.017 | 1.572 ± 0.017
x2 = 0.8426 | 1014.6 ± 0.8 | 1010.9 ± 0.8 | 1005.8 ± 0.8 | 1496.9 ± 9.1 | 1487.6 ± 9 | 1478 ± 9 | 1.835 ± 0.017 | 1.664 ± 0.017 | 1.535 ± 0.016
x2 = 0.9759 | 1009.7 ± 0.7 | 1005.2 ± 0.7 | 1000.4 ± 0.8 | 1515.5 ± 9.2 | 1508.7 ± 9.1 | 1495.9 ± 9.1 | 1.773 ± 0.017 | 1.612 ± 0.016 | 1.496 ± 0.015
